Measured values reported in a compilation of properties of binary mixtures (doi:10.1016/j.molliq.2021.117163).

Test: xn = mol fraction of the nth substance listed
Details: 298.15 K, 100 kPa

viscosity (x1 = 1) [mPa·s]	viscosity (x2 = 0) [mPa·s]	viscosity (x2 = 0.05) [mPa·s]	viscosity (x2 = 0.1) [mPa·s]	viscosity (x2 = 0.3) [mPa·s]	viscosity (x2 = 0.4) [mPa·s]	viscosity (x2 = 0.5) [mPa·s]	viscosity (x2 = 0.6) [mPa·s]	viscosity (x2 = 0.7) [mPa·s]	viscosity (x2 = 0.8) [mPa·s]	viscosity (x2 = 0.9) [mPa·s]	Compound
107.2											CCCC[n+]1ccn(C)c1.F[B-](F)(F)F + CC1COC(=O)O1
	2.7	3.6	4.4	10	15	22	31.4	44.5	63.5	81.3	CC1COC(=O)O1 (stereo unspecified) + CCCC[n+]1ccn(C)c1.F[B-](F)(F)F
